Test results: patent publication US8551960B2, “Uses of D-mannopyranose derivatives activating angiogenesis” (Centre National de la Recherche Scientifique, priority 2008, dated 2013)

Each compound was assayed on chick embryo chorioallantoic membrane (CAM) (assay: chick embryo chorioallantoic membrane (CAM) angiogenesis study). Conditions: nitrocellulose filter disk soaked with 20 μl of 6 mg/ml in PBS placed on CAM on 7th day; observed on 12th day; estimated visually; FIG. 1.
Format: in vivo, chick (Leghorn white breed)
Description: This study was conducted on chick embryos according to the method described by Ribatti D. et al., Nat. Protoc., 2006, 1(1), 85-91 with some minor modifications.
This study was conducted on chick embryo chorioallantoic membrane (CAM). The CAM is an extraembryonic membrane formed on the 4th day of incubation by fusion of the chorion and allantois. It enables gas exchanges to take place between the chick embryo and the extraembryonic environment until birth. This CAM is composed of a very thick capillary network which forms a continuous surface in direct contact with the shell. Rapid capillary proliferation of this membrane continues until the 11th day; the mitotic index then decreases rapidly and the vascular system reaches its final arrangement on the 18th day, just before birth (hatching on the 21st day).
Fertilized chicken eggs of the Leghorn white breed were placed in an incubator at the start of embryogenesis, where they were kept under constant humidity at a temperature of 38° C. On the second day of incubation, a window was made in the shell after removing 2 to 3 ml of albumin in order to detach the CAM from the shell. The window was then sealed with adhesive tape and the egg was put back in the incubator to continue its development until the day of the experiment. On the 7th day, pieces of inert synthetic polymers (nitrocellulose filter disks 0.4 cm in diameter) were soaked with 20 μl of each of the solutions of the test compounds (6 mg/ml in PBS) and were then positioned on the CAM. The effect of the test substances on angiogenesis was then observed on the 12th day and the quantitative evaluation of the pro- or antiangiogenic response was estimated visually.
CO[C@H]1O[C@H](CN=[N+]=[N-])[C@@H](O)[C@H](O)[C@@H]1O [Compound I-2, Methyl 6-Azido-6-Deoxy-α-D-Mannopyranoside] was tested, and the “effect on vascularization of the chick embryos (pro- or antiangiogenic response)” value (“effect on vascularization” for short) was “activating effect on vascularization”.
For “methyl 6,7-dideoxy-7-sulfonato-D-manno-heptopyranoside [DM2]”, the “effect on vascularization” value was “inhibitory effect on vascularization”.
For COC1O[C@H](COP(=O)([O-])[O-])[C@@H](O)[C@H](O)[C@@H]1O.[Na+].[Na+] (stereo partly drawn) [DM1, methyl(disodium)-6-phosphate-D-manno-pyranoside], the “effect on vascularization” value was “inhibitory effect on vascularization”.
For COC1O[C@H](CC(C(=O)O)C(=O)O)[C@@H](O)[C@H](O)[C@@H]1O (stereo partly drawn) [DM3, methyl 6-deoxy-6-malonate-D-mannopyranoside], the “effect on vascularization” value was “inhibitory effect on vascularization”.
With COC1O[C@H](CCP(=O)(O)O)[C@@H](O)[C@H](O)[C@@H]1O (stereo partly drawn) [Compound I-4, methyl 7-phosphonato-6,7-dideoxy-D-manno-heptopyranoside] the “effect on vascularization” value was “activating effect on vascularization”.
COC1O[C@H](CC(=O)O)[C@@H](O)[C@H](O)[C@@H]1O (stereo partly drawn) [DM4, (methyl 6,7-dideoxy-D-manno-heptopyranoside)uronic acid] was tested, and the “effect on vascularization” value was “inhibitory effect on vascularization”.
In the case of CO[C@H]1O[C@H](CCN)[C@@H](O)[C@H](O)[C@@H]1O [Compound I-1, Methyl 7-amino-6,7-dideoxy-α-D-manno-heptopyranoside], the “effect on vascularization” value is reported as “activating effect on vascularization”.
